Measurements as given in patent publication US7223793B2, “Phenolic acid derivatives and composition for preventing or treating blood lipid level-related diseases comprising the same” (Bionutrigen Co., Ltd., priority 2001, dated 2007).
Marks after values point to notes of the source that are not given here.

Tests used:
Sprague-Dawley rats = test: Effect on blood lipid level in rats fed high-cholesterol diet (Experimental Example 1); format: in vivo, rat; conditions: rats on 1% cholesterol diet, 5 weeks; for Atherogenic index (AI): (total cholesterol − HDL cholesterol)/HDL cholesterol; for HDL-cholesterol/total cholesterol / HDL-cholesterol / Total cholesterol / Triglyceride: plasma, 0.02% lovastatin or 0.046% BN30028 in diet; for HDL-cholesterol / Total cholesterol / Triglyceride: average ± standard deviation
Text: 30 of 4-week-old male white Sprague-Dawley rats (Bio Genomics Inc., Korea), each weighing about […], were divided into three groups by a randomized block design. The rats of the three groups were fed with three different high-cholesterol diets, i.e., AIN-76 laboratory animal diets (TEKLAD premier Co., Madison, Wis., U.S.A.) containing 1% cholesterol (Control group), 1% cholesterol plus 0.02% lovastatin (Choongwae Pharma. Corp., Korea) and 1% cholesterol plus 0.046% BN30028, respectively, as shown in Table I.
The rats were allowed free access to the specified diets and water for 5 weeks and the ingestion amounts were recorded daily. The rats were weighed every 5 days, and then the record was analyzed.
Blood samples were taken from vena hypogastrica of the rats of the three dietary groups raised in Step 1 and centrifuged to separate plasma. The total cholesterol level was measured by using a diagnosis kit purchased from Sigma (USA), Cat. No.: C0534, applying the method of Allain et al. (Allain et al., Clin. Chem., 20, 470-475 (1974)). The HDL fraction was separated by using a kit purchased from Sigma, Cat. No.: 352-1 applying the heparin-manganese precipitation method (Waenic R. G. and Albers J. J., J Lipid Res., 19, 65-76 (1978)) and the HDL-cholesterol level was measured by using a kit purchased from Sigma, Cat. No.: C9908. The triglyceride level was measured using a kit purchased from Sigma, Cat. No.: 336-10) applying the lipase-glycerol phosphate oxidase method (McGowan, M. W. et al., Clin. Chem., 29, 538-542(1983)). All the data are expressed by average±standard deviation.

ICR mice = test: Acute oral toxicity in mice (Experimental Example 5); format: in vivo
Procedure: The toxicity of orally administered BN30028 was tested as follows. Four-week-old specific pathogen-free ICR mice, 12 female mice and 12 male mice, were kept in a room under conditions of 22±3° C., 55±10% relative humidity and 12L/12D photoperiod. The mice was acclimated for one week before using in experiment. Fodder (Cheiljedang Co., mouse and rat fodder) and water were sterilized and freely fed to the mice.
BN30028 was dissolved in 0.5% Tween 80 to a concentration of […] and the solution was orally administered to the mice in an amount of 0.2 mL (1 g/kg), 0.4 mL (2 g/kg) or 0.8 mL (4 g/kg) per 20 g of mouse body weight. The solution was administered once for the 1 g/kg and 2 g/kg groups and twice for the 4 g/kg group. […] Also, on the 7th day, the mice were sacrificed and the internal organs were visually examined. From the day of the administration, the weight changes of the animals were recorded every other day to examine the effect of BN30028 on the reduction of body weight of animals.

[1] = system: New Zealand White rabbits; test: Fatty streak in the main artery of cholesterol-fed rabbits (Experimental Example 2); format: in vivo, rabbit; conditions: 8 weeks; for Proportion of stained region (fatty streak region) per unit area of the main artery: 1% cholesterol + RC4 diet, lovastatin 1 mg/kg or BN30028 0.05 wt %, Oil Red O, average ± standard deviation; for Proportion of the fatty streak region compared to the control group / Arterial endothelium, macrophage-lipid complex / atherosclerotic plaque (photographs): 1% cholesterol diet; for Arterial endothelium, macrophage-lipid complex / atherosclerotic plaque (photographs): FIGS. 1a-1c
Procedure: The rabbits raised in Step 1 were sacrificed and their chests were incised. The incision was performed downward to the diaphragm along the aortic arch and the fat surrounding the main artery was removed. The main artery was incised in the middle along the longitudinal axis from the second aortic intercostal artery anastomoses to the seventh aortic intercostal artery anastomoses and fixed with 10% neutral buffered formalin for 24 hours. Then, the incised main artery was pinned to a dish for staining of fatty streaks according to the method of Esper, E., et al. (J. Lab. Clin. Med., 121, 103-110 (1993)). The staining carried out by washing the artery three times with propylene glycol for 2 minutes respectively. The artery was stained for 30 minutes with a saturated solution of Oil Red O (ORO, Sigma Co.) dissolved in propylene glycol. Thereafter, the artery was washed twice with 85% propylene glycol for 3 minutes respectively to remove the remaining staining solution and, then once with physiological saline. The artery was photographed and the photograph was traced. The proportion (%) of stained region (fatty streak region) per unit area of the main artery was determined with an image analyzer (LEICA, Q-600, Germany). The significant differences between the test groups were tested by student t-test using Microsoft excel (version 7.0) program

Compound | Atherogenic index (AI) (Sprague-Dawley rats) | HDL-cholesterol/total cholesterol (Sprague-Dawley rats) [%] | HDL-cholesterol (Sprague-Dawley rats) [mg/dL] | Total cholesterol (Sprague-Dawley rats) [mg/dL] | Triglyceride (Sprague-Dawley rats) [mg/dL] | Reduction of total plasma cholesterol level as compared to the control group (Sprague-Dawley rats) [%] | Reduction of triglyceride as compared to the control group (Sprague-Dawley rats) [%] | Body weight change (ICR mice; oral 1 g/kg, 2 g/kg and 4 g/kg, 7 days after the administration) | LD50 (ICR mice; orally administered, female and male mice) | Proportion of stained region (fatty streak region) per unit area of the main artery [1] | Proportion of the fatty streak region compared to the control group [1] | Arterial endothelium, macrophage-lipid complex / atherosclerotic plaque (photographs) [1] | Increase of triglyceride as compared to the control group (Sprague-Dawley rats) [%]
COC(=O)C(Cc1ccccc1)NC(=O)CCc1ccc(O)c(O)c1 (stereo not shown) [BN30028, 2-[3-(3,4-dihydroxyphenyl)propionylamino]-3-phenyl propionic acid methyl ester] | 1.84 ± 0.2 | 35.1 ± 0.6 | 25.6 ± 0.6 | 72.8 ± 3.7 | 47.6 ± 1.6 | 12 | 15 | normal weight increase without any weight loss | more than 4 g/kg body weight | 16.1 ± 9.6^b % | significantly reduced | clean | 
CC[C@H](C)C(=O)O[C@H]1C[C@@H](C)C=C2C=C[C@H](C)[C@H](CC[C@@H]3C[C@@H](O)CC(=O)O3)[C@H]21 [Lovastatin, reference compound] | 2.3 ± 0.2 | 30.2 ± 0.5 | 23.4 ± 0.4 | 77.4 ± 1.8 | 69.0 ± 4.7 | 6 |  |  |  | 18.2 ± 10.4^b % | significantly reduced | clean | 25
